Patent US6689803B2, “Compositions and methods for treating surgical adhesions” (Angiotech Pharmaceuticals, Inc., priority 1996, dated 2004)
Read-outs that look alike come from different tables or passages of the source.

Columns and labels:
neutrophils = assay: Neutrophil degranulation assay (myeloperoxidase, lysozyme release); assay type: cell-based, human
Procedure: Neutrophil viability and purity was always greater than 90%.
One and a half milliliter Eppendorf tubes containing either 25 mg of CPPD or 1 mg of zymosan were preheated to 37° C. 0.5 ml of cells at 37° C. were added followed by vigorous shaking to initiate the reactions. At appropriate times, tubes were centrifuged at 10,000 g for 10 seconds and 0.4 ml of supernatant was stored at −20° C. for later assay.
Lysozyme was measured by the decrease in absorbance at 450 nm of a Micrococcus lysodeikticus suspension. Briefly, Micrococcus lysodeikticus was suspended at 0.1 mg/ml in 65 mM potassium phosphate buffer, pH 6.2 and the absorbance at 450 nm was adjusted to 0.7 units by dilution. The crystal (or zymosan) and cell supernatant (100 μl) was added to 2.5 ml of the Micrococcus suspension and the decrease in absorbance was monitored. Lysozyme standards (chicken egg white) in the 0 to 2000 units/ml range were prepared and a calibration graph of lysozyme concentration against the rate of decrease in the absorbance at 450 nm was obtained.
Myeloperoxidase (MPO) activity was measured by the increase in absorbance at 450 nm that accompanies the oxidation of dianisidine. 7.8 mg of dianisidine was dissolved in 100 ml of 0.1 M citrate buffer, pH 5.5 at […] by sonication. To a 1 ml cuvette, 0.89 ml of the dianisidine solution was added, followed by 50 μl of 1% Triton x 100, 10 μl of a 0.05% hydrogen peroxide in water solution and 50 μl of crystal-cell supernatant. MPO activity was determined from the change in absorbance (450 nm) per minute, Delta Å 450, using the following equation: […]

synoviocytes = assay: 3H-thymidine incorporation into synoviocytes; assay type: cell-based; conditions: 6 or 24 hours
Procedure: At these times, 1×10^−6 cpm of ^3H-thymidine was added to the cell culture and incubated for 2 hours at 37° C. The cells were placed through a cell harvester, washed through a filter, the filters were cut, and the amount of radiation contained in the filter sections determined. Once the amount of thymidine incorporated into the cells was ascertained, it was used to determine the rate of cell proliferation. This experiment was repeated three times and the data collated.

[1] = system: fibrous astrocytes (GFAP); assay: GFAP and astrocytes in brain, transgenic mouse model of demyelinating disease; assay type: in vivo; conditions: brain sections, transgenic mice
Description: Three days following the tenth injection, the experimental study was terminated and the brain tissues processed for histological analysis. For light microscopy, tissues were fixed in formalin and embedded in paraffin. Sections were stained with anti-GFAP antibody (DACO), washed and then reacted with secondary antibody conjugated with HPP. The sections were stained for HPP and counter-stained with haematoxylin.

stromelysin (MMP-3) mRNA = assay: IL-1 induced stromelysin mRNA expression in chondrocytes (Northern blot); assay type: cell-based
Description: The blots were subsequently stripped and reprobed with ^32P-radiolabeled rat GAPDH cDNA, which was used as a housekeeping gene. […] The MMP-1 and MMP-3 expression levels were normalized with GAPDH.

[2] = system: MDAY-D2 tumors on the CAM; assay: Tumor angiogenesis: MDAY-D2 tumors on the CAM; assay type: in vivo, chick; conditions: 20% paclitaxel-loaded thermopaste
Procedure: Fertilized domestic chick embryos are incubated for 4 days prior to having their shells removed. The egg contents are emptied by removing the shell located around the airspace, severing the interior shell membrane, perforating the opposite end of the shell and allowing the egg contents to gently slide out from the blunted end. The contents are emptied into round-bottom sterilized glass bowls, covered with petri dish covers and incubated at 90% relative humidity and 3% carbon dioxide.
MDAY-D2 cells (a murine lymphoid tumor) are injected into mice and allowed to grow into tumors weighing 0.5-1.0 g. The mice are sacrificed, the tumor sites wiped with alcohol, excised, placed in sterile tissue culture media, and diced into 1 mm pieces under a laminar flow hood. Prior to placing the dissected tumors onto the […] chick embryos, CAM surfaces are gently scraped with a 30 gauge needle to ensure tumor implantation. The tumors are then placed on the CAMs after 8 days of incubation (4 days after deshelling), and allowed to grow on the CAM for four days to establish a vascular supply. Four embryos are prepared utilizing this method, each embryo receiving 3 tumors. On day 12, each of the 3 tumors on the embyros received either 20% paclitaxel-loaded thermopaste, unloaded thermopaste, or no treatment. The treatments were continued for two days before the results were recorded.
The explanted MDAY-D2 tumors secrete angiogenic factors which induce the ingrowth of capillaries (derived from the CAM) into the tumor mass and allow it to continue to grow in size. Since all the vessels of the tumor are derived from the CAM, while all the tumor cells are derived from the explant, it is possible to assess the effect of therapeutic interventions on these two processes independently. This assay has been used to determine the effectiveness of paclitaxel-loaded thermopaste on: (a) inhibiting the vascularization of the tumor and (b) inhibiting the growth of the tumor cells themselves.

LNCaP cells = assay: LNCaP cell growth (crystal violet); assay type: cell-based, human; conditions: Homo sapiens, LNCaP, 120 h; 5 days; read-out: EC50
Procedure: LNCaP cells were seeded at concentrations of 2×10^3 and 1×10^3 cells/well respectively in 96 well plates. […] After incubation, the cells were fixed with 1% glutaraldehyde solution, and stained for 5 minutes with 0.5% crystal violet. The dye was successively eluted with 100 μl of buffer solution and the absorbance was read on a Titertek Multiskan microplate reader using a wavelength of 492 nm Absorbance. Cell growth was expressed as a percentage relative to control wells in the absence of the compound (set at 100%).

chondrocytes = assay: Viability of non-proliferating chondrocytes (trypan blue); assay type: cell-based; conditions: up to 10^−5 M, 72 hours
Description: While it is important that a disease-modifying agent be capable of strongly inhibiting a variety of inappropriate cellular activities (proliferation, inflammation, proteolytic enzyme production) which occur in excess during the development of chronic inflammation, it must not be toxic to the normal tissues. It is particularly critical that normal cells not be damaged, as this would lead to progression of the disease.

[3] = In vitro release of paclitaxel from polymeric formulations; assay type: physicochemical; conditions: for paclitaxel released: 10 days in PBS
Procedure: The tube was incubated at 37° C. with gentle rotational mixing. […] The supernatant (10 ml) was extracted with 1 ml methylene chloride. […] The injection volume was 20 μl and the flow rate was 1 ml/minute.
An equal volume of PBS was replaced in each tube to maintain sink conditions throughout the study.
Sampling daily (three sampling at the first day) to maintain the sink condition.

[4] = Stability of paclitaxel in cyclodextrin solutions; assay type: physicochemical
Description: The solutions containing 20% HPβCD or HPγCD had pH values of 3.9 and 5.2, respectively.

[5] = system: chick chorioallantoic membrane (CAM) vasculature; conditions: for CAM vasculature: 2-day exposure

With `CC(=O)O[C@H]1C(=O)[C@@]2(C)[C@H]([C@H](OC(=O)c3ccccc3)[C@]3(O)C[C@H](OC(=O)[C@H](O)[C@@H](NC(=O)c4ccccc4)c4ccccc4)C(C)=C1C3(C)C)[C@]1(OC(C)=O)CO[C@@H]1C[C@@H]2O` [paclitaxel] the lysozyme release (neutrophils; 28 μM, plasma opsonized CPPD) was “reduced lysozyme release”, the inhibition at 28 µM (neutrophils; Homo sapiens, Neutrophil, 28 μM, opsonized zymosan, after 9 minutes incubation, read-out: inhibition of MPO release) was 50% and the myeloperoxidase release (neutrophils; plasma opsonized CPPD (FIG. 5A: 28 μM)) was “significantly inhibited CPPD-induced myeloperoxidase release at all times”. The “inhibits incorporation of 3H-thymidine at concentrations as low as” value (synoviocytes) was 10^−8 M, the “number of fibrous astrocytes” value [1] was “decreased significantly” and the “concentration inhibiting stromelysin expression in vitro” value (stromelysin (MMP-3) mRNA) was 10^−6 M. For the same compound, the “stromelysin mRNA levels” value (stromelysin (MMP-3) mRNA; 10^−5 M, pretreatment 24 hours, IL-1) was “complete inhibition”, the “blood vessels in the immediate periphery of the tumor” value ([2]; two days) was 14 and the “small capillaries in the tumor mass” value ([2]; two days) was 3-4. For the same compound, the tumor vascularity ([2]; all 4 embryos) was “suppressing tumor vascularity”, the EC50 (LNCaP cells) was about 90 pM and the “viability of normal non-proliferating cells” value (chondrocytes) was “does not affect the viability”. The paclitaxel released ([3]; 5 mg of 30% loaded PLLA microspheres) was 400 µg, the “released fraction of total drug content” value ([3]; 5% paclitaxel loaded PCL microspheres, after 21 days, PBS 37° C.) was “about 20%” and the paclitaxel released ([3]; 10% loaded PLLA microspheres) was 150 µg. The released paclitaxel ([3]; 20% paclitaxel loaded 0:100 PDLLA:PCL (PCL) paste, within 10 days) was 6%, the released paclitaxel ([3]; 20% paclitaxel loaded 70:30 PDLLA:PCL paste, within 10 days) was 11% and the released paclitaxel ([3]; 20% paclitaxel loaded 80:20 PDLLA:PCL paste, within 10 days) was 17%. The released paclitaxel ([3]; 20% paclitaxel loaded 90:10 PDLLA:PCL paste, within 10 hours) was 25-35%, the released paclitaxel ([3]; 20% paclitaxel loaded PDLLA-PEG-PDLLA cylinder, 20% PEG, 1 mm, 30 days) was 2% and the released paclitaxel ([3]; 20% paclitaxel loaded PDLLA-PEG-PDLLA cylinder, 30% PEG, 0.65 mm, 30 days) was 26%. For the same compound, the released paclitaxel ([3]; 20% paclitaxel loaded PDLLA-PEG-PDLLA cylinder, 30% PEG, 1 mm, 30 days, PBS albumin 37° C.) was 17%, the drug released ([3]; paclitaxel-nylon microcapsules, after 72 hours) was “more than 95%” and the “degradation rate constant k” value ([4]; 1 μg/ml paclitaxel, 1% HPβ-CD, 55° C.) was 0.00338 h⁻¹. The degradation rate constant ([4]; 10% HPβ-CD (FIG. 42: 20 μg/ml, 37° C., pH 3.7)) was 0.00178 h⁻¹, the degradation rate constant ([4]; 10% HPγ-CD (FIG. 42: 20 μg/ml, 37° C., pH 4.9)) was 0.00096 h⁻¹ and the CAM vasculature ([5]; 5% paclitaxel-loaded PCL microspheres, 1 mg) was “marked vascular regression and zones which were devoid of a capillary network”. For the same compound, the “diameter of avascular areas” value ([5]; 48 hour exposure to 10 μg paclitaxel per 10 ml of methylcellulose) was “approximately 6 mm”, the “avascular zones did not revascularize for” value ([5]; after application) was “at least 7 days” and the “inhibition of angiogenesis occurs as early as” value ([5]; after application) was 9 h. For the same compound, the avascular gradient scale ([5]; maximal avascular zone within 48 hours depending on concentration, methylcellulose disk) was 3, the Inhibition/n ([5]; micellar solution (10 ul), 10%) was “too toxic” and the CAM vasculature ([5]; paclitaxel-gelatin-PCL paste, 1 mg pieces) was “consistently showed vascular regression and zones which lacked a capillary network”. For the same compound, the “maximal avascular zone diameter” value ([5]; within 48 hours depending on concentration, methylcellulose disk) was 6 mm.
